The values that follow come from US20260373248A1, “DEGRADABLE PEPTOIDS” (Medici Therapeutics, Inc., priority 2023, published 2026).

Non-standard residues stand in square brackets, D forms with d. Residues, ends and D or L forms follow the SMILES beside them. *: point of attachment. Gly(N-(3-decanoyloxypropyl)) = CCCCCCCCCC(=O)OCCCNCC(=O)O; N(3-lauroyloxypropyl)Gly = CCCCCCCCCCCC(=O)OCCCNCC(=O)O; N(3-imidazol-1-ylpropyl)Gly = O=C(O)CNCCCn1ccnc1; Gly(N-3-morpholinopropyl) = O=C(O)CNCCCN1CCOCC1; N(2-ethylhexyl)Gly = CCCCC(CC)CNCC(=O)O; Gly(N-dodecyl) = CCCCCCCCCCCCNCC(=O)O; N(CH(CH2OH)2)Gly = O=C(O)CNC(CO)CO; NDecylGly = CCCCCCCCCCNCC(=O)O; NHexGly = CCCCCCNCC(=O)O; For = O=C*

A short description of series [1]: Delivery vehicle size and polydispersity by dynamic light scattering. Type of series: physicochemical. An outline of the steps: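 Dynamic light scattering in PBS gave size and polydispersity of peptoid LNPs. These were dialyzed overnight at 4 °C into tris-sucrose buffer pH 7.4 after microfluidic 1:3 volume mixing of mRNA in pH 5.0 citrate with ethanol lipids (peptoid:DSPC:cholesterol:DMG-PEG2000 20:1.79:7.16:1.84 w/w).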

The next series relates to mRNA. In words: mRNA encapsulation (modified Quant-iT RiboGreen assay). Type of series: physicochemical. The following applies: for mean percent encapsulation of RNA: RiboGreen, without vs with Triton X-100; for % Encapsulation: mRNA. An outline of the steps:
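Encapsulated fraction was calculated by comparing RiboGreen signal (excitation 485 nm, emission 530 nm) of intact particles with that of particles lysed by a 10-min Triton X-100 treatment. Total mRNA concentration was taken from the lysed samples.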

The next series concerns firefly luciferase. In words: In vivo firefly luciferase expression after intravenous injection of fLuc mRNA delivery vehicles (IVIS imaging). Further details: species or system female Balb/c mice. The settings on record: for Total Flux (luciferase expression): fLuc mRNA, intravenous, Balb/c mice; for Total Flux: mice, 2.5 ug fLuc mRNA intravenously, 6 hours post-injection. An outline of the steps: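 Read-out is total photon flux per region of interest, from whole-body IVIS images taken 10 minutes after IP D-luciferin (30 mg/mL, 10 μL/g) and from excised organs. Female Balb/c mice aged 6-8 weeks received 2.5 ug fLuc mRNA Nutshells intravenously 6 hours before imaging.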

The test system of a further series is hEPO. In words: Quantification of hEPO in serum after IV injection of mRNA (Human EPO ELISA). Type of series: in vivo. The settings on record: Balb/c mice, 2.5 μg mRNA IV, serum after 6 hours. An outline of the steps: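 Balb/c mice received 2.5 μg mRNA encoding human EPO by IV injection; serum was collected after 6 hours. hEPO was measured by sandwich ELISA (biotin-conjugate, streptavidin-HRP, TMB, A450) against kit standards (mIU/mL) and an external standard (ng/mL), with values interpolated and corrected for dilution.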

A short description of series [2]: Peptoid quantity remaining in liver by HPLC-TOF mass spectrometry. Type of series: in vivo. The settings on record: liver homogenate. On the procedure:
Peptoid quantity in liver was determined via high-performance liquid chromatography coupled with time-of-flight mass spectrometer (HPLC-TOF). The entire liver was weighed, and then two sections were isolated using a provided biopsy punch for liver homogenization. Liver homogenate sample was prepared by resuspending 20 mg liver tissue in 400 μL extraction solvent (IPA/MeOH=8/2) containing an internal standard (400 pg/μL) followed by bead homogenization (45 sec per cycle for 3-4 cycles). Homogenized samples were centrifuged at 12,000 rpm for 8 min at 6 °C. The resulting supernatant was collected and stored at −20 °C for further LC analysis. 5 μL of the resulting supernatant sample from solid or liquid tissue was injected into a BEH C8 column on an Agilent 1290 Infinity II liquid chromatograph coupled with an Agilent 6230 LC-TOF system. Concentrations of peptoids were determined by a linear calibration curve (linear range:0.2-50 μg/g for solid tissue). Standard calibration curve solutions were prepared by spiking untreated liver followed by homogenization and centrifugation.

The subject of the next series is luciferase. In words: Luciferase expression after local (intramuscular or subcutaneous) administration of mRNA. The settings on record: mRNA 0.01 mpk, 6 hours; for IM Flux: intramuscular; for SC Flux: subcutaneous. Type of series: in vivo. An outline of the steps: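 Bioluminescence read 6 hours after fLuc mRNA dosing (peptoid Nutshells; 0.01 mpk S.C. or I.M., 0.1 mpk intratumoral) in female Balb/c mice aged 6-8 weeks. D-luciferin injected IP, whole-body imaging after 10 minutes, then organ imaging; total photon flux per region of interest.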

Setting [3] is: DLS in PBS, peptoid:DSPC:Cholesterol:DMG-PEG2000 weight ratio 20:1.79:7.16:1.84, mRNA.

`CCCCCCCCCCCCN(C=O)CC(=O)N(CCCOC(=O)CCCCCCCCC)CC(=O)N(CC(=O)N(CCCN1CCOCC1)CC(=O)N(CC(=O)N(CCCOC(=O)CCCCCCCCC)CC(=O)N(CCCCCCCCCCCC)CC(N)=O)CC(CC)CCCC)CC(CC)CCCC` (stereo not drawn) [Compound 88] (For-[Gly(N-dodecyl)][Gly(N-(3-decanoyloxypropyl))][N(2-ethylhexyl)Gly][Gly(N-3-morpholinopropyl)][N(2-ethylhexyl)Gly][Gly(N-(3-decanoyloxypropyl))][Gly(N-dodecyl)]-NH2): in series [1] (setting [3]), the PDI is recorded as 0.118 and the “Particle Size” value turned out to be 73.1 nm. Also, the “Particle Size” value in series [1] (formulation recipe F2) was 72.4 nm. Also, the “mean percent encapsulation of RNA” value with mRNA was found to be 7.4%. The “% Encapsulation” value in the series with mRNA (formulation recipe F2) was 71.8%. In addition, the “Total Flux (luciferase expression)” value in the series on firefly luciferase (formulation recipe F2) came to 1.59E+09 p/s. The “Total Flux” value with firefly luciferase stood at 3.77E+08 p/s. Moreover, the hEPO with hEPO was determined as 109 ng/mL. Besides, in series [2], the “% of injected dose remaining in liver” value was 16.59%. Further, in the series on luciferase, the “IM Flux” value is given as 4.29E+07 p/s and the “SC Flux” value stood at 6.88E+07 p/s.
Regarding `CCCCCCCCCCCC(=O)OCCCN(CC(N)=O)C(=O)CN(CC(CC)CCCC)C(=O)CN(CCCCCCCCCC)C(=O)CN(CC(CC)CCCC)C(=O)CN(CCCOC(=O)CCCCCCCCCCC)C(=O)CN(CC(CC)CCCC)C(=O)CNC(CO)CO` (stereo not drawn) [Compound 59] (H-[N(CH(CH2OH)2)Gly][N(2-ethylhexyl)Gly][N(3-lauroyloxypropyl)Gly][N(2-ethylhexyl)Gly][NDecylGly][N(2-ethylhexyl)Gly][N(3-lauroyloxypropyl)Gly]-NH2), in series [1] (setting [3]), the PDI is listed as 0.106 and the “Particle Size” value stood at 79.5 nm. The “mean percent encapsulation of RNA” value in the series with mRNA was found to be 95.2%. Also, the “Total Flux” value in the series with firefly luciferase was determined as 6.47E+08 p/s. For the same molecule, in the series with hEPO, the hEPO came to 112 ng/mL. In addition, the “% of injected dose remaining in liver” value in series [2] is on record as −1.85%. Moreover, in the series with luciferase, the “IM Flux” value turned out to be 6.35E+07 p/s and the “SC Flux” value was determined as 8.71E+08 p/s.
On to `CCCCCCCCCC(=O)OCCCN(CC(=O)N(CCCOC(=O)CCCCCCCCC)CC(=O)N(CCCCCC)CC(=O)N(CCCOC(=O)CCCCCCCCC)CC(=O)N(CCCOC(=O)CCCCCCCCC)CC(=O)N(CCCCCC)CC(N)=O)C(=O)CNCCCn1ccnc1` [Compound 109] (H-[N(3-imidazol-1-ylpropyl)Gly][Gly(N-(3-decanoyloxypropyl))][Gly(N-(3-decanoyloxypropyl))][NHexGly][Gly(N-(3-decanoyloxypropyl))][Gly(N-(3-decanoyloxypropyl))][NHexGly]-NH2), for which, in series [1] (setting [3]), the PDI was found to be 0.173 and the “Particle Size” value is 87.5 nm. In addition, in the series on mRNA, the “mean percent encapsulation of RNA” value is given as 69.5%. Moreover, the “Total Flux” value in the series with firefly luciferase is recorded as 1.85E+09 p/s. In the series on hEPO, this molecule yielded a hEPO of 108 ng/mL. In addition, in series [2], the “% of injected dose remaining in liver” value is on record as 48.80%. In addition, in the series with luciferase, the “IM Flux” value is recorded as 3.97E+07 p/s and the “SC Flux” value stood at 1.00E+08 p/s.
Take `CCCCCCCCCCCC(=O)OCCCN(CC(=O)N(CC(=O)N(CCCCCC)CC(=O)N(CCCOC(=O)CCCCCCCCCCC)CC(=O)N(CC(=O)N(CCCCCC)CC(N)=O)CC(CC)CCCC)CC(CC)CCCC)C(=O)CNCCCn1ccnc1` (stereo not drawn) [Compound 72] (H-[N(3-imidazol-1-ylpropyl)Gly][N(3-lauroyloxypropyl)Gly][N(2-ethylhexyl)Gly][NHexGly][N(3-lauroyloxypropyl)Gly][N(2-ethylhexyl)Gly][NHexGly]-NH2): in series [1] (setting [3]), the PDI is 0.139 and the “Particle Size” value amounted to 106.8 nm. In the series on mRNA, the “mean percent encapsulation of RNA” value was 89.2%. In addition, the “Total Flux” value with firefly luciferase stood at 1.71E+08 p/s. In the series with hEPO, this molecule returned a hEPO of 36 ng/mL. Also, the “% of injected dose remaining in liver” value in series [2] amounted to 11.32%. In the series with luciferase, the “IM Flux” value amounted to 9.25E+06 p/s and the “SC Flux” value is given as 3.73E+07 p/s.
Consider `CCCCCCCCCCCC(=O)OCCCN(CC(=O)N(CC(=O)N(CC(=O)N(CCCOC(=O)CCCCCCCCCCC)CC(=O)N(CC(=O)N(CC(N)=O)CC(CC)CCCC)CC(CC)CCCC)CC(CC)CCCC)CC(CC)CCCC)C(=O)CNC(CO)CO` (stereo not drawn) [Compound 51] (H-[N(CH(CH2OH)2)Gly][N(3-lauroyloxypropyl)Gly][N(2-ethylhexyl)Gly][N(2-ethylhexyl)Gly][N(3-lauroyloxypropyl)Gly][N(2-ethylhexyl)Gly][N(2-ethylhexyl)Gly]-NH2), for which, in series [1] (setting [3]), the PDI amounted to 0.128. Moreover, the “Particle Size” value is 61.4 nm in series [1] (setting [3]), 61.4 nm in series [1] (formulation recipe D22), 58.4 nm in series [1] (formulation recipe O5) and 56.7 nm in series [1] (formulation recipe O6). The “mean percent encapsulation of RNA” value with mRNA worked out at 80.3%. For the same molecule, the results for the “% Encapsulation” value with mRNA (formulation recipe D22), with mRNA (formulation recipe O5) and in the series on mRNA (formulation recipe O6) were 80.3%, 91.9% and 91.8%, respectively. In addition, the “Total Flux (luciferase expression)” value in the series with firefly luciferase (formulation recipe D22) was found to be 4.42E+09 p/s; with firefly luciferase (formulation recipe O5), 1.50E+09 p/s; with firefly luciferase (formulation recipe O6), 1.27E+09 p/s. Further, in the series with firefly luciferase, the “Total Flux” value is 4.42E+09 p/s. The hEPO with hEPO was 591 ng/mL. The “% of injected dose remaining in liver” value in series [2] is listed as 16.40%. In addition, the “IM Flux” value with luciferase is given as 1.84E+08 p/s. Also, in the series on luciferase, the “SC Flux” value amounted to 2.26E+08 p/s.
Take `CCCCCCCCCC(=O)OCCCN(CC(=O)N(CCCOC(=O)CCCCCCCCC)CC(=O)N(CCCCCC)CC(=O)N(CCCOC(=O)CCCCCCCCC)CC(=O)N(CCCOC(=O)CCCCCCCCC)CC(=O)N(CCCCCC)CC(N)=O)C(=O)CN(C=O)CCCN1CCOCC1` [Compound 108] (For-[Gly(N-3-morpholinopropyl)][Gly(N-(3-decanoyloxypropyl))][Gly(N-(3-decanoyloxypropyl))][NHexGly][Gly(N-(3-decanoyloxypropyl))][Gly(N-(3-decanoyloxypropyl))][NHexGly]-NH2): in series [1] (setting [3]), the PDI was 0.263 and the “Particle Size” value was 96.7 nm. Further, the “Particle Size” value in series [1] (formulation recipe F2) was 95.3 nm. Also, the “mean percent encapsulation of RNA” value in the series with mRNA was determined as 49.9%. In the series with mRNA (formulation recipe F2), the “% Encapsulation” value is reported as 60.1%. Moreover, the “Total Flux (luciferase expression)” value in the series on firefly luciferase (formulation recipe F2) came to 1.47E+09 p/s. Besides, in the series on firefly luciferase, the “Total Flux” value is 4.91E+09 p/s. The same molecule registered a hEPO in the series on hEPO of 377 ng/mL. Moreover, the “% of injected dose remaining in liver” value in series [2] is 7.35%. For the same molecule, in the series on luciferase, the “IM Flux” value was found to be 1.25E+08 p/s and the “SC Flux” value amounted to 1.74E+08 p/s.
